Assays:
Test in all cases: relative viability (nuclei count vs DMSO), 5 days (fraction); higher = more cells survive
[1] = compound: CC1=CC=C(C=C1)C(=O)CN2C3=C(CCCC3)SC2=N [Pifithrin_alpha] + CS(=O)(=O)CCNCc1ccc(-c2ccc3ncnc(Nc4ccc(OCc5cccc(F)c5)c(Cl)c4)c3c2)o1 [Lapatinib] (partner 2 µM)
Procedure, shortened: (§1)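 Lung cancer cell lines in 1536-well plates got either a single drug or a fixed anchor-drug dose together with five library-drug doses (not always all listed) in √10 steps, by pin tool, on the day after seeding. Nuclei were counted after 5 days, and relative viability is the treated-to-vehicle ratio of nuclei counts. Values are medians of duplicate plates.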

Bemcentinib + Olaparib = compound: Nc1nc(Nc2ccc3c(c2)CC[C@@H](N2CCCC2)CC3)nn1-c1cc2c(nn1)-c1ccccc1CCC2 [Bemcentinib] + O=C(c1cc(Cc2n[nH]c(=O)c3ccccc23)ccc1F)N1CCN(C(=O)C2CC2)CC1 [Olaparib] (partner 8 µM)
Procedure, shortened: as §1

[2] = compound: CC1=CC=C(C=C1)C(=O)CN2C3=C(CCCC3)SC2=N [Pifithrin_alpha] + NC(=O)Nc1cc(-c2cccc(F)c2)sc1C(=O)N[C@H]1CCCNC1 [AZD7762] (partner 0.2 µM)
Procedure, shortened: as §1

Bemcentinib + Trametinib = compound: Nc1nc(Nc2ccc3c(c2)CC[C@@H](N2CCCC2)CC3)nn1-c1cc2c(nn1)-c1ccccc1CCC2 [Bemcentinib] + CC(=O)Nc1cccc(-n2c(=O)n(C3CC3)c(=O)c3c(Nc4ccc(I)cc4F)n(C)c(=O)c(C)c32)c1 [Trametinib] (partner 0.02 µM)
Procedure, shortened: as §1

Cell Line | relative viability ([1]; first compound 1 µM) | relative viability ([1]; first compound 3.162 µM) | relative viability ([1]; first compound 10 µM) | relative viability ([1]; first compound 31.62 µM) | relative viability ([1]; first compound 100 µM) | relative viability (Bemcentinib + Olaparib; first compound 0.04 µM) | relative viability (Bemcentinib + Olaparib; first compound 0.1265 µM) | relative viability (Bemcentinib + Olaparib; first compound 0.4 µM) | relative viability (Bemcentinib + Olaparib; first compound 1.265 µM) | relative viability (Bemcentinib + Olaparib; first compound 4 µM) | relative viability ([2]; first compound 1 µM) | relative viability ([2]; first compound 3.162 µM) | relative viability ([2]; first compound 10 µM) | relative viability ([2]; first compound 31.62 µM) | relative viability ([2]; first compound 100 µM) | relative viability (Bemcentinib + Trametinib; first compound 0.04 µM) | relative viability (Bemcentinib + Trametinib; first compound 0.1265 µM) | relative viability (Bemcentinib + Trametinib; first compound 0.4 µM) | relative viability (Bemcentinib + Trametinib; first compound 1.265 µM) | relative viability (Bemcentinib + Trametinib; first compound 4 µM)
NCI-H358 | 0.507 | 0.447 | 0.486 | 0.425 | 0.429 | 0.59 | 0.622 | 0.598 | 0.593 | 0.669 | 0.582 | 0.489 | 0.496 | 0.427 | 0.413 | 0.12 | 0.125 | 0.118 | 0.134 | 0.145
NCI-H460 | 1.2 | 1.21 | 1.1 | – | 0.533 | 0.433 | 0.407 | 0.555 | 0.52 | 0.473 | 0.545 | 0.501 | 0.401 | – | 0.375 | 0.137 | 0.185 | 0.147 | 0.158 | 0.259
NCI-H596 | 0.9 | 0.934 | 1.02 | 0.915 | 1.07 | 0.605 | 0.749 | 0.759 | 0.613 | 0.773 | 1.18 | 0.967 | 0.926 | 0.939 | 1.03 | 0.911 | 0.965 | 0.93 | 0.946 | 0.923
NCI-H647 | 0.978 | 0.997 | 0.975 | – | 0.966 | 0.479 | 0.666 | 0.698 | 0.602 | 0.624 | – | 0.368 | 0.307 | 0.361 | 0.287 | 0.493 | 0.545 | 0.538 | 0.392 | 0.634
NCI-H727 | 0.884 | 0.903 | 0.695 | 0.555 | 0.565 | 0.678 | 0.618 | 0.813 | 0.52 | 0.747 | 0.478 | 0.57 | 0.571 | 0.51 | 0.48 | 0.39 | 0.381 | 0.385 | 0.424 | 0.414
NCI-H838 | 1.08 | 0.908 | 0.822 | 0.562 | 0.615 | 0.795 | 0.933 | 0.915 | 0.864 | 0.774 | 0.875 | 0.909 | 0.832 | 0.744 | 0.884 | 0.501 | 0.535 | 0.533 | 0.432 | 0.534
NCI-H1355 | 0.765 | 0.756 | 0.699 | 0.616 | 0.702 | 0.748 | 0.811 | 0.766 | 0.773 | 0.75 | 0.857 | 0.633 | 0.511 | 0.463 | 0.514 | 0.407 | 0.414 | 0.462 | 0.405 | 0.509
NCI-H1395 | – | 0.797 | 0.967 | 0.663 | 0.814 | – | 0.474 | 0.462 | 0.497 | 0.463 | – | 0.385 | 0.397 | – | 0.361 | – | 1.12 | 1.02 | 1.2 | 1.11
NCI-H1437 | 0.946 | 0.809 | 0.898 | 0.507 | 0.377 | 0.639 | 0.656 | 0.718 | 0.651 | 0.592 | 1.21 | 1.21 | 1.11 | 0.735 | 0.942 | 0.539 | 0.683 | 0.486 | 0.455 | 0.644
NCI-H1651 | 0.633 | 0.763 | 0.865 | 0.537 | 0.741 | 0.201 | 0.204 | 0.187 | 0.189 | 0.191 | 0.399 | 0.461 | 0.454 | 0.361 | 0.512 | 0.85 | 0.831 | 0.788 | 0.951 | 0.852
NCI-H1666 | 0.503 | 0.405 | 0.286 | 0.337 | 0.365 | 0.742 | 0.887 | 0.731 | 0.713 | 0.713 | 0.767 | 0.717 | 0.677 | 0.581 | 0.491 | 0.972 | 0.954 | 0.926 | 1.01 | 0.925
NCI-H1734 | 1.05 | 1.08 | 0.953 | 0.749 | 1.07 | 0.634 | 0.754 | 0.649 | 0.603 | 0.642 | 0.486 | 0.526 | 0.517 | 0.429 | 0.524 | 0.679 | 0.743 | 0.739 | 0.625 | 0.701
NCI-H1755 | 0.96 | 1.01 | 0.966 | 0.812 | 1.23 | 0.92 | 0.868 | 0.929 | 0.951 | 0.935 | 0.433 | 0.498 | 0.46 | 0.41 | 0.434 | 0.765 | 0.817 | 0.818 | 0.768 | 0.813
NCI-H1792 | 0.68 | 1.24 | 0.83 | 0.508 | 0.878 | 0.496 | 0.353 | 0.538 | 0.391 | 0.498 | 0.656 | 0.508 | 0.453 | – | 0.494 | 0.461 | 0.422 | 0.549 | 0.569 | 0.43
NCI-H1793 | 0.692 | 0.716 | 0.505 | 0.867 | 0.739 | 0.852 | 1.16 | 0.987 | 0.961 | 0.842 | 0.605 | 0.402 | 0.441 | 0.323 | 0.255 | 0.442 | 0.436 | 0.421 | 0.442 | 0.365
NCI-H1915 | 0.923 | 1.15 | 0.883 | – | 1.13 | 0.282 | 0.242 | 0.243 | 0.232 | 0.26 | 0.682 | 0.694 | 0.647 | – | 0.656 | 0.291 | 0.29 | 0.283 | 0.293 | 0.305
NCI-H1944 | 0.755 | 0.67 | 0.517 | – | 0.598 | 0.413 | 0.414 | 0.418 | 0.436 | 0.424 | 0.514 | 0.574 | 0.563 | 0.529 | 0.468 | 0.399 | 0.43 | 0.463 | 0.431 | 0.468
NCI-H1975 | 0.895 | 0.544 | 0.655 | 0.489 | 0.761 | 0.803 | 0.954 | 0.951 | 0.849 | 0.749 | 0.508 | 0.485 | 0.501 | 0.512 | 0.38 | 0.282 | 0.399 | 0.365 | 0.36 | 0.344
NCI-H1993 | – | 0.761 | 0.73 | 0.764 | 0.777 | 1.05 | 1.23 | 1 | 1.15 | 1.16 | 0.528 | 0.665 | 0.69 | 0.538 | 0.569 | 0.71 | 0.394 | 0.467 | 0.493 | 0.482
NCI-H2085 | 0.626 | 0.69 | 0.691 | 0.667 | 0.661 | 0.747 | 0.707 | 0.768 | 0.755 | 0.741 | 1 | 0.973 | 0.881 | 0.665 | 0.762 | 0.538 | 0.667 | 0.526 | 0.444 | 0.516
NCI-H2087 | 0.991 | 0.942 | 0.913 | 0.655 | 0.972 | 0.638 | 0.65 | 0.616 | 0.614 | 0.644 | 1.4 | 1.32 | 1.28 | 1.03 | 1.26 | 0.192 | 0.193 | 0.201 | 0.211 | 0.206
NCI-H2126 | 0.614 | 0.643 | 0.68 | 0.536 | 0.658 | 0.999 | 0.931 | 0.948 | 1.01 | 0.916 | 0.79 | 1.05 | 0.949 | 0.799 | 0.915 | 0.639 | 0.583 | 0.588 | 0.581 | 0.585
NCI-H2170 | 0.263 | 0.274 | 0.287 | 0.266 | 0.263 | 0.563 | 0.661 | 0.567 | 0.583 | 0.589 | 0.899 | 0.91 | 0.733 | 0.613 | 0.783 | 0.94 | 0.967 | 0.92 | 0.968 | 0.936
NCI-H2347 | 0.811 | 0.911 | 0.902 | 0.705 | 0.911 | 0.58 | 0.587 | 0.553 | 0.659 | 0.611 | 0.84 | 0.733 | 0.738 | 0.756 | 0.86 | 0.254 | 0.312 | 0.232 | 0.307 | 0.302
NCI-H2405 | – | 0.975 | 0.991 | 0.882 | 0.975 | 0.83 | 0.938 | 0.959 | 0.975 | 0.91 | – | 0.654 | 0.651 | 0.579 | 0.615 | 0.6 | 0.732 | 0.621 | 0.7 | 0.722
NCI-H3122 | 1.11 | 1.04 | 1.05 | 0.837 | 1.01 | 0.651 | 0.652 | 0.637 | 0.678 | 0.68 | 1.07 | 1.1 | 0.962 | 0.739 | 1.08 | 0.25 | 0.248 | 0.214 | 0.252 | 0.244
PC-3 [JPC-3] | 0.392 | 0.421 | 0.401 | 0.414 | 0.326 | 1.08 | 1.15 | 1.17 | 1.11 | 1.06 | – | 0.678 | – | 0.464 | 0.446 | 0.664 | 0.775 | 0.725 | 0.632 | 0.636
PC-14 | 0.337 | 0.32 | 0.265 | 0.271 | 0.15 | 0.279 | 0.433 | 0.235 | 0.225 | 0.187 | 0.217 | 0.194 | 0.251 | 0.213 | 0.263 | 0.857 | 0.783 | 0.947 | 0.879 | 0.892
RERF-LC-KJ | 0.819 | 0.865 | 0.836 | 0.747 | 0.768 | 0.873 | 0.928 | 0.896 | 0.976 | 0.782 | 0.628 | 0.882 | 0.941 | 0.981 | 0.854 | 0.953 | 0.968 | 0.863 | 0.818 | 0.96

From the supplement of paper PMC10307832
